Legend:
[1] = target: T1, Sigma non-opioid intracellular receptor 1 (Homo sapiens, UniProt Q99720); assay: Displacement of [3H]-pentazocine from sigma-1 receptor in human Jurkat cell membrane at 100 nM incubated for 2 hr by liquid scintillation counting method relative to control; assay type: cell membranes
[2] = target: T2, Sigma intracellular receptor 2 (Homo sapiens, UniProt Q5BJF2); assay: Displacement of [3H]-DTG from sigma-2 receptor in human Jurkat cell membrane incubated for 1 hr by liquid scintillation counting method; assay type: cell membranes
[3] = Displacement of [3H]-DTG from sigma-2 receptor in guinea pig brain membrane incubated for 1 hr by liquid scintillation counting method; assay type: cell membranes, Cavia porcellus
[4] = Metabolic stability in human liver microsomes assessed as half-life at 10 uM incubated for 1 hr in presence of NADPH by LC-MS/MS analysis; assay type: ADME, Microsome
[5] = Intrinsic clearance in human liver microsomes at 10 uM incubated for 1 hr in presence of NADPH by LC-MS/MS analysis; assay type: ADME, Microsome; settings: read-out: CLH
[6] = Metabolic stability in rat liver microsomes assessed as half-life at 10 uM incubated for 1 hr in presence of NADPH by LC-MS/MS analysis; assay type: ADME, Microsome
[7] = Intrinsic clearance in rat liver microsomes at 10 uM incubated for 1 hr in presence of NADPH by LC-MS/MS analysis; assay type: ADME, Microsome; settings: read-out: CLH
[8] = target: T1, Sigma non-opioid intracellular receptor 1; assay: Displacement of [3H]-pentazocine from sigma-1 receptor in human Jurkat cell membrane incubated for 2 hr by liquid scintillation counting method; assay type: cell membranes
[9] = target: T2, Sigma intracellular receptor 2; assay: Displacement of [3H]-DTG from sigma-2 receptor in human Jurkat cell membrane at 1000 nM incubated for 1 hr by liquid scintillation counting method relative to control; assay type: cell membranes; settings: filed as antagonist
[10] = target: Sigma non-opioid intracellular receptor 1 (Cavia porcellus, UniProt Q60492); assay: Displacement of [3H]-(+)-pentazocine from sigma-1 receptor in guinea pig brain membranes incubated for 1 hr by liquid scintillation counting method; assay type: cell membranes, Membrane
Sigma non-opioid intracellular receptor 1 (Cavia porcellus, UniProt Q60492), sequence (Q60492 whole entry): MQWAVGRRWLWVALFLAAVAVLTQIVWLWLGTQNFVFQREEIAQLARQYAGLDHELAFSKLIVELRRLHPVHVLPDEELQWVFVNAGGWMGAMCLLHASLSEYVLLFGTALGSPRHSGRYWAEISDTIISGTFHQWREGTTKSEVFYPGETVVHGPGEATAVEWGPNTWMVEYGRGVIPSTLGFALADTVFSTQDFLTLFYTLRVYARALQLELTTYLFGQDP

T1 sequence (Q99720 whole entry): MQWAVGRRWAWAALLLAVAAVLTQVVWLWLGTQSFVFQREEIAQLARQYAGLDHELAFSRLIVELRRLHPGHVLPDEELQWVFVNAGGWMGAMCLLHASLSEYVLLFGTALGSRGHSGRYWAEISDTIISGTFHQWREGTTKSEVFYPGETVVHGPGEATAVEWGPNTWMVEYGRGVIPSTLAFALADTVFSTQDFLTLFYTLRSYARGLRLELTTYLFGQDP
T2 sequence (Q5BJF2 whole entry): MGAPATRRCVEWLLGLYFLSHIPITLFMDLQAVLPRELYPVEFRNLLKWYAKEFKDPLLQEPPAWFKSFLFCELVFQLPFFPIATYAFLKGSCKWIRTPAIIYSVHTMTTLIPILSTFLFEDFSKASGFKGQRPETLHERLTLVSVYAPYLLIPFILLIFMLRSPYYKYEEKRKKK

## Cn1nc(CN2CCCC2)nc1-c1ccc(Cl)cc1
[1]
  Activity: 31%
[2]
  Ki: > 1000 nM

## O=C(CCCN1CCC(O)(c2ccc(Cl)cc2)CC1)c1ccc(F)cc1 [HALOPERIDOL]
[3]
  Ki: 4.7 nM

## CN(Cc1nc(-c2ccc(C(C)(C)C)cc2)n(C)n1)CC1CC1
[3]
  Ki: 324 nM
[4]
  half-life at 10 µM: 61.3 min
[5]
  microsomal CLint at 10 µM: 11.3 µL/min/mg
[6]
  half-life at 10 µM: 3.5 min
[7]
  microsomal CLint at 10 µM: 196 µL/min/mg

## Cn1nc(CN2CCCC2)nc1-c1cccc(C2(C(F)(F)F)CC2)c1
[4]
  half-life at 10 µM: 87.6 min
[5]
  microsomal CLint at 10 µM: 7.9 µL/min/mg
[6]
  half-life at 10 µM: 4.8 min
[7]
  microsomal CLint at 10 µM: 144 µL/min/mg

## Cn1nc(CN2CCCC2)nc1-c1ccc(C(F)(F)F)cc1
[2]
  Ki: > 1000 nM
[8]
  Ki: 82 nM

## Cn1nc(CN2CCCC2)nc1-c1ccc(C2CCCCC2)cc1
[9]
  Activity: 89%
[8]
  Ki: 20 nM

## Cn1nc(CN2CCCC2)nc1-c1ccc2c(c1)CCCC2
[8]
  Ki: 26 nM

## Cc1cc(-c2nc(CN3CCCC3)nn2C)ccc1C(F)(F)F
[4]
  half-life at 10 µM: 74.9 min
[5]
  microsomal CLint at 10 µM: 9.3 µL/min/mg
[6]
  half-life at 10 µM: 2.6 min
[7]
  microsomal CLint at 10 µM: 263 µL/min/mg

## CC(C)c1ccc(-c2nc(CN3CCCC3)nn2C)cc1
[2]
  Ki: 1000 nM
[8]
  Ki: 96 nM

## Cn1nc(CN2CCC(Cc3ccccc3)CC2)nc1-c1ccc(C(C)(C)C)cc1
[3]
  Ki: 57 nM

## Cn1nc(CN2CCCC2)nc1-c1ccc2cc(Cl)sc2c1
[2]
  Ki: 1000 nM

## Cc1ccc(-c2nc(CN3CCCC3)nn2C)cc1
[1]
  Activity: 3%
[2]
  Ki: > 1000 nM

## Cn1nc(CN2CCOCC2)nc1-c1ccc(C(C)(C)C)cc1
[3]
  Ki: > 1000 nM

## Cn1nc(CN2CCN(c3ccccc3)CC2)nc1-c1ccc(C(C)(C)C)cc1
[3]
  Ki: > 1000 nM
[10]
  Ki: 14 nM
[4]
  half-life at 10 µM: 37.3 min
[5]
  microsomal CLint at 10 µM: 18.6 µL/min/mg
[6]
  half-life at 10 µM: 23.3 min
[7]
  microsomal CLint at 10 µM: 29.8 µL/min/mg

## Cn1nc(CN2CCCC2)nc1-c1ccc(-c2ccccc2)cc1
[9]
  Activity: 60%
[8]
  Ki: 90 nM

## Cn1nc(CN2CCCC2)nc1-c1ccc(-c2ccc(Cl)c(Cl)c2)c(Cl)c1
[9]
  Activity: 79%
[1]; filed as antagonist
  Activity: 43%

## Cn1nc(CN2CCCC2)nc1-c1ccc(Oc2ccccc2)cc1
[9]
  Activity: 65%
[1]
  Activity: 39%

## Cn1nc(CN2CCCCC2)nc1-c1ccc(C(C)(C)C)cc1
[3]
  Ki: 441 nM

Source: ChEMBL document CHEMBL4765482, “Novel Sigma 1 Receptor Antagonists as Potential Therapeutics for Pain Management” (J Med Chem, 2021)
